Assay results from ChEMBL document CHEMBL1201862, “PubChem BioAssay data set” (2004).
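96-well plates; 48 h exposure; 5 concentrations. Endpoints by linear interpolation between flanking doses. Not reached: highest tested concentration assigned. Here, GI50 denotes the concentration required for 50% inhibition of growth.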 Active and inactive are the calls of the source. No stated cut-off is given here; in the data, active = GI50 up to about 1.1 µM and inactive = higher.

Legend:
Assay in all cases: inhibition of tumour cell growth, NCI panel, 48 h
[1] = tested on: OVCAR-8
[2] = tested on: NCI-H460
[3] = tested on: SF-295
[4] = tested on: NCI-H522
[5] = tested on: U-251
[6] = tested on: A549
[7] = tested on: HOP-62
[8] = tested on: KM-20L2
[9] = tested on: SR
[10] = tested on: DMS-273
[11] = tested on: SK-MEL-2
[12] = tested on: XF498
[13] = tested on: K562
[14] = tested on: SK-MEL-5
[15] = tested on: CCRF-CEM
[16] = tested on: COLO 205
[17] = tested on: HCT-116
[18] = tested on: SF-539
[19] = tested on: KM12
[20] = tested on: Malme-3M
[21] = tested on: LXFL 529
[22] = tested on: HOP-18
[23] = tested on: DLD-1
[24] = tested on: IGROV-1
[25] = tested on: NCI-H226
[26] = tested on: SN12C
[27] = tested on: HCC 2998
[28] = tested on: OVCAR-4
[29] = tested on: SNB-78
[30] = tested on: SNB-75
[31] = tested on: M14
[32] = tested on: TK-10
[33] = tested on: HCT-15
[34] = tested on: UO-31
[35] = tested on: UACC-62
[36] = tested on: HT-29
[37] = tested on: UACC-257
[38] = tested on: M19-MEL
[39] = tested on: SNB-19
[40] = tested on: SK-OV-3
[41] = tested on: DMS-114
[42] = tested on: NCI-H23
[43] = tested on: ACHN
[44] = tested on: SK-MEL-28
[45] = tested on: LOX IMVI
[46] = tested on: MOLT-4
[47] = tested on: 786-0
[48] = tested on: OVCAR-3
[49] = tested on: EKVX
[50] = tested on: CAKI-1
[51] = tested on: RXF 393
[52] = tested on: OVCAR-5
[53] = tested on: RPMI-8226
[54] = tested on: HL-60
[55] = tested on: HOP-92
[56] = tested on: RXF 631
[57] = tested on: SW-620
[58] = tested on: SF-268
[59] = tested on: A498

`COC(=O)c1cc2c3ccccc3n(C(C)=O)c2cn1` was tested, and the GI50 [1] was 56.4 µM (inactive), the GI50 [2] was 35.6 µM (inactive) and the GI50 [3] was > 100 µM (inactive). For the same compound, the GI50 [4] was 53.1 µM (inactive), the GI50 [5] was > 100 µM (inactive) and the GI50 [6] was > 100 µM (inactive). The GI50 [7] was 59.6 µM (inactive), the GI50 [8] was > 100 µM (inactive) and the GI50 [9] was 45.6 µM (inactive). The GI50 [10] was > 100 µM (inactive), the GI50 [11] was > 100 µM (inactive) and the GI50 [12] was 38.6 µM (inactive). For the same compound, the GI50 [13] was 59.2 µM (inactive), the GI50 [14] was > 100 µM (inactive) and the GI50 [15] was 38.8 µM (inactive). The GI50 [16] was 92.5 µM (inactive), the GI50 [17] was > 100 µM (inactive) and the GI50 [18] was > 100 µM (inactive). The GI50 [19] was 80.5 µM (inactive), the GI50 [20] was > 100 µM (inactive) and the GI50 [21] was 66.4 µM (inactive). For the same compound, the GI50 [22] was 44.9 µM (inactive), the GI50 [23] was > 100 µM (inactive) and the GI50 [24] was 40.4 µM (inactive). For the same compound, the GI50 [25] was > 100 µM (inactive), the GI50 [26] was > 100 µM (inactive) and the GI50 [27] was > 100 µM (inactive). The GI50 [28] was 60 µM (inactive), the GI50 [29] was > 100 µM (inactive) and the GI50 [30] was 25.6 µM (inactive). The GI50 [31] was > 100 µM (inactive), the GI50 [32] was 45.8 µM (inactive) and the GI50 [33] was 68.9 µM. The GI50 [34] was > 100 µM (inactive), the GI50 [35] was 76.9 µM (inactive) and the GI50 [36] was > 100 µM (inactive). For the same compound, the GI50 [37] was > 100 µM (inactive), the GI50 [38] was > 100 µM (inactive) and the GI50 [39] was > 100 µM (inactive). The GI50 [40] was > 100 µM (inactive), the GI50 [41] was > 100 µM (inactive) and the GI50 [42] was 83.4 µM (inactive). For the same compound, the GI50 [43] was 53.8 µM (inactive), the GI50 [44] was > 100 µM (inactive) and the GI50 [45] was 63.4 µM (inactive). The GI50 [46] was 41.6 µM (inactive), the GI50 [47] was > 100 µM (inactive) and the GI50 [48] was 98.6 µM (inactive). The GI50 [49] was 51.2 µM (inactive), the GI50 [50] was 23.2 µM (inactive) and the GI50 [51] was 43.9 µM (inactive). The GI50 [52] was > 100 µM (inactive), the GI50 [53] was 45.4 µM (inactive) and the GI50 [54] was 35.7 µM (inactive). For the same compound, the GI50 [55] was 49 µM (inactive), the GI50 [56] was 77.6 µM (inactive) and the GI50 [57] was > 100 µM (inactive).
For `Clc1ccc2c(c1)[nH]c1c2nc2sccn21`, the GI50 [1] was > 100 µM (inactive), the GI50 [2] was > 100 µM (inactive) and the GI50 [3] was > 100 µM (inactive). The GI50 [4] was > 100 µM (inactive), the GI50 [5] was > 100 µM (inactive) and the GI50 [6] was > 100 µM (inactive). For the same compound, the GI50 [7] was > 100 µM (inactive), the GI50 [8] was > 100 µM (inactive) and the GI50 [9] was > 100 µM (inactive). For the same compound, the GI50 [10] was > 100 µM (inactive), the GI50 [11] was > 100 µM (inactive) and the GI50 [12] was > 100 µM (inactive). The GI50 [13] was > 100 µM (inactive), the GI50 [14] was > 100 µM (inactive) and the GI50 [15] was > 100 µM (inactive). The GI50 [16] was > 100 µM (inactive), the GI50 [17] was > 100 µM (inactive) and the GI50 [18] was > 100 µM (inactive). The GI50 [19] was > 100 µM (inactive), the GI50 [20] was > 100 µM (inactive) and the GI50 [21] was > 100 µM (inactive). The GI50 [22] was > 100 µM (inactive), the GI50 [23] was > 100 µM (inactive) and the GI50 [24] was > 100 µM (inactive). The GI50 [25] was > 100 µM (inactive), the GI50 [26] was > 100 µM (inactive) and the GI50 [27] was > 100 µM (inactive). The GI50 [28] was > 100 µM (inactive), the GI50 [29] was > 100 µM (inactive) and the GI50 [30] was 28.6 µM (inactive). The GI50 [31] was > 100 µM (inactive), the GI50 [32] was > 100 µM (inactive) and the GI50 [33] was greater than 100 µM. The GI50 [34] was > 100 µM (inactive), the GI50 [35] was > 100 µM (inactive) and the GI50 [36] was > 100 µM (inactive). For the same compound, the GI50 [37] was > 100 µM (inactive), the GI50 [38] was > 100 µM (inactive) and the GI50 [39] was > 100 µM (inactive). For the same compound, the GI50 [40] was > 100 µM (inactive), the GI50 [58] was > 100 µM (inactive) and the GI50 [41] was > 100 µM (inactive). The GI50 [42] was > 100 µM (inactive), the GI50 [43] was > 100 µM (inactive) and the GI50 [44] was > 100 µM (inactive). For the same compound, the GI50 [45] was > 100 µM (inactive), the GI50 [46] was > 100 µM (inactive) and the GI50 [59] was > 100 µM (inactive). The GI50 [47] was > 100 µM (inactive), the GI50 [48] was > 100 µM (inactive) and the GI50 [49] was > 100 µM (inactive). For the same compound, the GI50 [50] was > 100 µM (inactive), the GI50 [51] was > 100 µM (inactive) and the GI50 [52] was > 100 µM (inactive). The GI50 [53] was > 100 µM (inactive), the GI50 [54] was > 100 µM (inactive) and the GI50 [55] was > 100 µM (inactive). For the same compound, the GI50 [56] was > 100 µM (inactive) and the GI50 [57] was > 100 µM (inactive).
